Four molecules from patent US7303740B2, “Methods for the diagnosis and treatment of breast cancer” (Albert Einstein College of Medicine of Yeshiva University, priority 2000, dated 2007) can be followed below.

The subject of assay [1] is mgNIS. Put plainly: Immunoblot analysis of mgNIS in MG from ovariectomized nubile mice treated with hormones. The class given is in vivo. As to conditions: for mgNIS expression in mammary tissue (immunoblot): three consecutive days. The protocol:
FIG. 4. Immunoblot analysis of MG from ovariectomized nubile mice treated with various hormones. Membrane fractions isolated from MG of nubile mice were either sham treated with PBS (lane 1) or treated for three consecutive days with: progesterone (1 I.U.) (lane 2); 17-β-estradiol (1 μg) (lane 3); 17-β-estradiol and progesterone (1 I.U.) (lane 4); oxytocin (1 I.U.) (lane 5); oxytocin and 17-β-estradiol (lane 6); prolactin (10 I.U.) (lane 7); oxytocin, prolactin, and 17-β-estradiol (lane 8); and progesterone together with oxytocin, prolactin, and 17-β-estradiol (lane 9). Isolated membrane fractions were electrophoresed and electrotransferred onto nitrocellulose, followed by immunoblot analysis with anti-NIS Ab.
Oxytocin (α-hypophamine), prolactin, progesterone (4-pregnene-3,20-dione), and 17-β-estradiol (1,3,5[10]-estratriene-3,17-β-diol) were purchased from Sigma, St. Louis, Mo. Either ovariectomized or surgically unmodified 8- to 10-week-old CD1 (ICR) IBR mice (Charles River Laboratories, Wilmington, Mass.) were treated once a day with subcutaneous injections of 1 I.U. of oxytocin, 10 I.U. of prolactin, 1 μg 17-β-estradiol, or 1 I.U. of progesterone (intraperitoneally) for three consecutive days, either individually or in the indicated combination. A final injection was done on the fourth day; two hours later, mammary glands were removed for analysis. Oxytocin and prolactin were dissolved in sterile distilled water, 17-β-estradiol was dissolved in 90% alcohol, and progesterone was dissolved in sesame oil (Sigma, St. Louis, Mo.). Except for progesterone, indicated doses of hormones were injected after being taken in 200 μl sterile PBS solution. Progesterone (final concentration 10 mg/ml) was injected into 100 μl of sesame oil. Control animals which were sham treated with sesame oil were systematically included in experiments when progesterone was administered. At least three identically-treated animals were analyzed in each case.
Sprague-Dawley female rats (over 8 weeks old) at different physiological stages, and hormonally-treated CD1 (ICR) BR female mice, were sacrificed in a CO2 chamber before excision of thoracic, abdominal, and inguinal MG. Organs, which were removed from mice or rats were blended with a polytron homogenizer (Brinkmann Instruments, Westbury, N.Y.) for 1 min, and homogenized with a stirrer-type glass-teflon homogenizer (Caframo-Wiarton, Ontario, Canada) (Levy et al., 1997). Membrane fractions were prepared in the presence of protease inhibitors, as described above (Kaminsky et al., 1994). SDS-PAGE electrophoresis and electroblotting to nitrocellulose were performed as described in Levy et al. (1997). All samples were diluted 1:2 with loading buffer (Harlow and Lane, 1988) and heated at 37° C. for 30 min prior to electrophoresis. […]
On the technique in general: In western blotting, separated proteins are transferred to a membrane and probed.

Assay [2] relates to mgNIS. Put plainly: mgNIS expression (immunoblot) and 125I- transport in MG of hormonally treated intact nubile mice. The class given is in vivo. Conditions: intact nubile animals. As for the experimental part:
(§1) FIG. 3. In vivo effect of oxytocin on functional expression of mgNIS in nubile mice. (A) Radioiodide transport in MG of oxytocin-treated nubile mice. Seven- to eight-week-old female mice were treated subcutaneously with phosphate buffered saline solution (PBS), 10 I.U. of prolactin (PRL), 1 I.U. of oxytocin (OXY), or prolactin and oxytocin (PRL+OXY) for three days. Then, 1 μCi of ^125I^− was injected intraperitoneally. […] (B) Immunoblot analysis of MG from hormonally-treated mice. […] Isolated membrane fractions were electrophoresed, electrotransferred onto nitrocellulose, and analyzed by immunoblots using anti-NIS Ab. […] Perchlorate-inhibited accumulation of ^99mTcO4^− was detected in stomach and MG of OXY-treated animals. (D) Quantification of ^99mTcO4^− accumulation in various organs from OXY- or PBS-treated mice. Tracer accumulation was monitored using image analysis software (ImageQuant, Macintosh). […] Counts were divided by the weight of the organs (cpm/mg tissue), and standardized by dividing them by cpm detected in the blood (cpm/mg blood) of each animal. ^99mTcO4^− accumulation in the organs from: PBS-treated animals (open bars); OXY-treated animals (dotted bars); and OXY-treated animals after ^99mTcO4^−+perchlorate injection (dark bars). […]

Assay [3] concerns the target T1, mgNIS (Mus musculus, UniProt Q99PN0).
T1 sequence (Q99PN0 1-618): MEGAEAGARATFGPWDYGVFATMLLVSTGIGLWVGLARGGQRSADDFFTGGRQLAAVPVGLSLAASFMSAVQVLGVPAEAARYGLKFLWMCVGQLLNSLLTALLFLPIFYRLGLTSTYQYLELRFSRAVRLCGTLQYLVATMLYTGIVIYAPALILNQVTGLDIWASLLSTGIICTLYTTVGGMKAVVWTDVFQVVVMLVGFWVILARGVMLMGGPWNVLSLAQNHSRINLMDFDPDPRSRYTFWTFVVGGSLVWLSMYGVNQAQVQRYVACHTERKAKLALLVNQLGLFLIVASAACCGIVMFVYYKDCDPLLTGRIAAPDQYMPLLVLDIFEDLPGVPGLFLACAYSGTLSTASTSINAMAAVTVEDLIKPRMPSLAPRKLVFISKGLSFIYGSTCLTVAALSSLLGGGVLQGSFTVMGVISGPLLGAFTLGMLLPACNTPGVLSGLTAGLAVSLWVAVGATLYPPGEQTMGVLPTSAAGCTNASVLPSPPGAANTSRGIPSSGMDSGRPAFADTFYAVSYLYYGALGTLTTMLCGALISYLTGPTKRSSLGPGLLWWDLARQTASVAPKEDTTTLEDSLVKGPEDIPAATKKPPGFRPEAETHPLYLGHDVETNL
The assay is described as follows: Ex vivo scintigraphic imaging of 99mTcO4- accumulation in organs of oxytocin-treated nubile mice. Set-up: Membrane fractions isolated from MG of nubile female mice; from tissue; host or cells: CD1 (ICR) mice (intact, ovariectomized, gestating) and MMTV-ras / MMTV-neu transgenic mice: mammary gland, mammary adenocarcinoma, stomach. Conditions: organs removed 30 min after tracer. As for the experimental part: as §1

Turning to `C[C@]12CC[C@@H]3c4ccc(O)cc4CC[C@H]3[C@@H]1CC[C@@H]2O` [17-β-estradiol, 1,3,5[10]-estratriene-3,17-β-diol], the “mgNIS expression in mammary tissue (immunoblot)” value in assay [1] is “clearly discernible increase”.

`CC[C@H](C)[C@@H]1NC(=O)[C@H](Cc2ccc(O)cc2)NC(=O)[C@@H](N)CSSC[C@@H](C(=O)N2CCC[C@H]2C(=O)N[C@@H](CC(C)C)C(=O)NCC(N)=O)NC(=O)[C@H](CC(N)=O)NC(=O)[C@H](CCC(N)=O)NC1=O` [oxytocin, α-hypophamine]: the “mgNIS expression in mammary tissue (immunoblot)” value in assay [1] is “did not cause an increase”. The “mgNIS expression in MG (immunoblot), leading to 125I- transport” value in assay [2] (1 I.U. s.c. for three days) is recorded as “induced mgNIS expression”. Besides, the “perchlorate-inhibited 99mTcO4- accumulation in MGs versus sham-treated mice” value in assay [3] is “significantly higher”.

For `CC(=O)[C@H]1CC[C@H]2[C@@H]3CCC4=CC(=O)CC[C@]4(C)[C@H]3CC[C@]12C` [progesterone, 4-pregnene-3,20-dione], in assay [1], the “effect on 17-β-estradiol enhancement of mgNIS expression” value was “did not interfere” and the “mgNIS expression when added to the 17-β-estradiol/oxytocin/prolactin combination” value is listed as “significantly decreased”.

B1: prolactin: a glycoprotein released from the anterior pituitary (protein, UniProt P01236 29-227, looked up)
Prolactin: LPICPGGAARCQVTLRDLFDRAVVLSHYIHNLSSEMFSEFDKRYTHGRGFITKAINSCHTSSLATPEDKEQAQQMNQKDFLSLIVSILRSWNEPLYHLVTEVRGMQEAPEAILSKAVEIEEQTKRLLEGMELIVSQVHPETKENEIYPVWSGLPSLQMADEESRLSAYYNLLHCLRRDSHKIDNYLKLLKCRIIHNNNC
With B1, the “effect on upregulation of mgNIS by oxytocin” value in assay [2] (10 I.U. prolactin with 1 I.U. oxytocin) is recorded as “antagonized”.
